Test results reported in paper PMC4631615 (Bipolar disorders, 2015).
Values joined by “and” are separate entries in the source; they are usually repeats but may differ in a detail not shown here. Identical values can stand only once. Marks after values point to notes of the source that are not given here.

Key:
[1] = tested on: SWV mouse fetuses; assay: Skeletal examination of fetuses; type: in vivo
[2] = tested on: pregnant SWV mice; assay: Pregnancy outcomes; type: in vivo, mouse
[3] = tested on: SWV mouse fetuses; settings: for Overall teratogenicity under the experimental conditions: SWV mice, p.o. GD 4–17, doses as fractions of LD50
[4] = tested on: mouse; settings: source not given; cited from earlier work
[5] = tested on: pregnant SWV mice; assay: Maternal body weight and weight gain, teratogenicity study; type: in vivo, mouse; settings: mean ± SD
[6] = tested on: NMRI mice; settings: injected on GD 8 with 3 mmol/kg; cited from earlier work
[7] = 1/6.54 of LD50 (RIS 9.6, OLA 32.1, VCD 152.8 mg/kg) p.o. GD 4–17
[8] = 1/13.1 of LD50 (OLA 16.05 mg/kg) p.o. GD 4–17
[9] = 1/6.54 of LD50 (RIS 9.6, OLA 32.1, VCD 152.8 mg/kg) p.o. GD 4–17, mean ± SD
[10] = 1/4.36 of LD50 (RIS 14.5, VCD 229.2 mg/kg) p.o. GD 4–17

Cc1cc2c(s1)Nc1ccccc1N=C2N1CCN(C)CC1 [OLA, 2-methyl-4-(4-methyl-1-piperazinyl)-10H-thieno(2,3-b)([1],[5])benzodiazepine]
All vertebra: incomplete ossification, affected fetuses [1, 7]: 3 | All vertebra: incomplete ossification, affected litters [1, 7]: 1 | Cervical vertebra: ossified fusion of centrums, affected fetuses [1, 7]: 0 | Fetuses with skeletal abnormalities, % [1, 7]: 79.2% | Fibula: bent, affected fetuses [1, 7]: 0 | Metacarpal: absent ossification, affected fetuses [1, 7]: 12 | Metacarpal: absent ossification, affected litters [1, 7]: 8 | Metacarpal: incomplete ossification, affected fetuses [1, 7]: 6 | Metacarpal: incomplete ossification, affected litters [1, 7]: 3 | Metatarsal: absent ossification, affected fetuses [1, 7]: 14 | Metatarsal: absent ossification, affected litters [1, 7]: 9 | Metatarsal: incomplete ossification, affected fetuses [1, 7]: 4 | Metatarsal: incomplete ossification, affected litters [1, 7]: 3 | Ribs: absent 13th, affected fetuses [1, 7]: 1/1 | Ribs: absent 13th, affected litters [1, 7]: 1/1 | Ribs: branched, affected fetuses [1, 7]: 0 | Skull: incomplete ossification, affected fetuses [1, 7]: 1/1 | Skull: incomplete ossification, affected litters [1, 7]: 1/1 | Skull: interparietal incomplete ossification, affected fetuses [1, 7]: 1/1 | Skull: interparietal incomplete ossification, affected litters [1, 7]: 1/1 | Skull: parietal incomplete ossification, affected fetuses [1, 7]: 0 | Skull: supraoccipital incomplete ossification, affected fetuses [1, 7]: 1/1 | Skull: supraoccipital incomplete ossification, affected litters [1, 7]: 1/1 | Sternebra: absent ossification, affected fetuses [1, 7]: 8 | Sternebra: absent ossification, affected litters [1, 7]: 5 | Sternebra: incomplete ossification, affected fetuses [1, 7]: 8 | Sternebra: incomplete ossification, affected litters [1, 7]: 7 | Sternebra: misaligned, affected fetuses [1, 7]: 0 | Sternebra: misshapen, affected fetuses [1, 7]: 0 | Whole skeletal system: incomplete ossification, affected fetuses [1, 7]: 7 | Whole skeletal system: incomplete ossification, affected litters [1, 7]: 3 | All vertebra: incomplete ossification, affected fetuses [1, 8]: 0 | Cervical vertebra: ossified fusion of centrums, affected fetuses [1, 8]: 0 | Fibula: bent, affected fetuses [1, 8]: 0 | Metacarpal: absent ossification, affected fetuses [1, 8]: 1/1 | Metacarpal: absent ossification, affected litters [1, 8]: 1/1 | Metacarpal: incomplete ossification, affected fetuses [1, 8]: 47 | Metacarpal: incomplete ossification, affected litters [1, 8]: 12 | Metatarsal: absent ossification, affected fetuses [1, 8]: 8/8 ^b | Metatarsal: absent ossification, affected litters [1, 8]: 8/8 ^b | Metatarsal: incomplete ossification, affected fetuses [1, 8]: 20 | Metatarsal: incomplete ossification, affected litters [1, 8]: 8 | Ribs: absent 13th, affected fetuses [1, 8]: 0 | Ribs: branched, affected fetuses [1, 8]: 0 | Skull: incomplete ossification, affected fetuses [1, 8]: 0 | Skull: interparietal incomplete ossification, affected fetuses [1, 8]: 4 | Skull: interparietal incomplete ossification, affected litters [1, 8]: 3 | Skull: parietal incomplete ossification, affected fetuses [1, 8]: 3 | Skull: parietal incomplete ossification, affected litters [1, 8]: 2 | Skull: supraoccipital incomplete ossification, affected fetuses [1, 8]: 1/1 | Skull: supraoccipital incomplete ossification, affected litters [1, 8]: 1/1 | Sternebra: absent ossification, affected fetuses [1, 8]: 4/4 | Sternebra: absent ossification, affected litters [1, 8]: 4/4 | Sternebra: incomplete ossification, affected fetuses [1, 8]: 25 | Sternebra: incomplete ossification, affected litters [1, 8]: 11 | Sternebra: misaligned, affected fetuses [1, 8]: 0 | Sternebra: misshapen, affected fetuses [1, 8]: 0 | Whole skeletal system: incomplete ossification, affected fetuses [1, 8]: 0 | Fetus weight [2, 9]: 0.66 ± 0.09 ^a g | Resorptions/litter [2, 9]: 9.6 ± 3.9 ^a | Fetus weight ([2]; 1/13.1 of LD50 (OLA 16.05 mg/kg) p.o. GD 4–17, mean ± SD): 0.83 ± 0.10 ^a g | Embryos resorbed ([2]; 1/13.1 of LD50 (OLA 16.05 mg/kg, low dose) p.o. GD 4–17): 15% | Overall teratogenicity under the experimental conditions [3]: the most teratogenic of the three test drugs | Dilated brain ventricles, affected litters ([3]; female, SWV, mouse, in vivo): 2/2 | Dilated renal pelvis, affected litters ([3]; female, SWV, mouse, in vivo): 2/2 | Exencephaly, affected fetuses ([3]; female, SWV, mouse, in vivo): 0 | Malposition stomach, affected fetuses ([3]; female, SWV, mouse, in vivo): 0 | Right aortic arch, affected fetuses ([3]; female, SWV, mouse, in vivo): 0 | LD50 mouse, oral [4]: 210 mg/kg | Dams net weight gain [5, 7]: 5.6 ± 2.0 ^a grams | Dams weight GD 18 [5, 7]: 34.9 grams and 34.9 ± 4.0 ^a grams | Dams weight gain [5, 7]: 8.0 ± 3.5 ^a grams | Dams net weight gain [5, 8]: 8.8 ± 1.8 grams | Dams weight GD 18 [5, 8]: 46.5 ± 3.6 grams | Dams weight gain [5, 8]: 18.7 ± 3.8 grams

Cc1nc2n(c(=O)c1CCN1CCC(c3noc4cc(F)ccc34)CC1)CCCC2 [RIS, 3-(2-(4-(6-fluoro-1,2-benzisoxazol-3-yl)piperidino)ethyl)-6,7,8,9-tetrahydro-2-methyl-4H-pyrido(1,2-a)pyrimidin-4-one]
All vertebra: incomplete ossification, affected fetuses [1, 10]: 0 | Cervical vertebra: ossified fusion of centrums, affected fetuses [1, 10]: 0 | Fetuses with skeletal abnormalities, % [1, 10]: 20.1% | Fibula: bent, affected fetuses [1, 10]: 0 | Metacarpal: absent ossification, affected fetuses [1, 10]: 6 | Metacarpal: absent ossification, affected litters [1, 10]: 1 | Metacarpal: incomplete ossification, affected fetuses [1, 10]: 0 | Metatarsal: absent ossification, affected fetuses [1, 10]: 6 | Metatarsal: absent ossification, affected litters [1, 10]: 1 | Metatarsal: incomplete ossification, affected fetuses [1, 10]: 0 | Ribs: absent 13th, affected fetuses [1, 10]: 0 | Ribs: branched, affected fetuses [1, 10]: 0 | Skull: incomplete ossification, affected fetuses [1, 10]: 6 | Skull: incomplete ossification, affected litters [1, 10]: 1 | Skull: interparietal incomplete ossification, affected fetuses [1, 10]: 0 | Skull: parietal incomplete ossification, affected fetuses [1, 10]: 1/1 | Skull: parietal incomplete ossification, affected litters [1, 10]: 1/1 | Skull: supraoccipital incomplete ossification, affected fetuses [1, 10]: 0 | Sternebra: absent ossification, affected fetuses [1, 10]: 7 | Sternebra: absent ossification, affected litters [1, 10]: 2 | Sternebra: incomplete ossification, affected fetuses [1, 10]: 13 | Sternebra: incomplete ossification, affected litters [1, 10]: 9 | Sternebra: misaligned, affected fetuses [1, 10]: 0 | Sternebra: misshapen, affected fetuses [1, 10]: 1/1 | Sternebra: misshapen, affected litters [1, 10]: 1/1 | Whole skeletal system: incomplete ossification, affected fetuses [1, 10]: 2 | Whole skeletal system: incomplete ossification, affected litters [1, 10]: 1 | All vertebra: incomplete ossification, affected fetuses [1, 7]: 0 | Cervical vertebra: ossified fusion of centrums, affected fetuses [1, 7]: 0 | Fetuses with skeletal abnormalities, % [1, 7]: 10.8% | Fibula: bent, affected fetuses [1, 7]: 0 | Metacarpal: absent ossification, affected fetuses [1, 7]: 0 | Metacarpal: incomplete ossification, affected fetuses [1, 7]: 1/1 | Metacarpal: incomplete ossification, affected litters [1, 7]: 1/1 | Metatarsal: absent ossification, affected fetuses [1, 7]: 0 | Metatarsal: incomplete ossification, affected fetuses [1, 7]: 1/1 | Metatarsal: incomplete ossification, affected litters [1, 7]: 1/1 | Ribs: absent 13th, affected fetuses [1, 7]: 0 | Ribs: branched, affected fetuses [1, 7]: 0 | Skull: incomplete ossification, affected fetuses [1, 7]: 3 | Skull: incomplete ossification, affected litters [1, 7]: 2 | Skull: interparietal incomplete ossification, affected fetuses [1, 7]: 0 | Skull: parietal incomplete ossification, affected fetuses [1, 7]: 0 | Skull: supraoccipital incomplete ossification, affected fetuses [1, 7]: 0 | Sternebra: absent ossification, affected fetuses [1, 7]: 0 | Sternebra: incomplete ossification, affected fetuses [1, 7]: 5 | Sternebra: incomplete ossification, affected litters [1, 7]: 4 | Sternebra: misaligned, affected fetuses [1, 7]: 0 | Sternebra: misshapen, affected fetuses [1, 7]: 3/3 | Sternebra: misshapen, affected litters [1, 7]: 3/3 | Whole skeletal system: incomplete ossification, affected fetuses [1, 7]: 1/1 | Whole skeletal system: incomplete ossification, affected litters [1, 7]: 1/1 | Resorption rate ([2]; 1/4.36 of LD50 (RIS 14.5 mg/kg) p.o. GD 4–17): 12.4% | Fetus weight ([2]; 1/4.36 of LD50 (RIS 14.5, VCD 229.2 mg/kg) p.o. GD 4–17, mean ± SD): 0.83 ± 0.05 ^a g | Fetus weight [2, 9]: 0.89 ± 0.06 g | Overall teratogenicity under the experimental conditions [3]: maternal-, embryo-, and fetotoxic | Cleft palate, affected fetuses ([3]; female, SWV, mouse, in vivo): 8 | Dilated brain ventricles, affected litters ([3]; female, SWV, mouse, in vivo): 2/2 | Exencephaly, affected litters ([3]; female, SWV, mouse, in vivo): 1/1 | Fetuses with external abnormalities, % ([3]; female, SWV, mouse, in vivo): 0.4% | Malposition stomach, affected fetuses ([3]; female, SWV, mouse, in vivo): 0 | Right aortic arch, affected fetuses ([3]; female, SWV, mouse, in vivo): 0 | LD50 mouse, oral [4]: 63 mg/kg | Dams net weight gain [5, 10]: 7.4 ± 2.3 ^a grams | Dams weight GD 18 [5, 10]: 47.1 ± 3.2 grams | Dams weight gain [5, 10]: 18.1 grams and 18.1 ± 2.5 ^a grams | Dams net weight gain [5, 7]: 7.5 ± 2.0 grams | Dams weight GD 18 [5, 7]: 46.9 ± 4.8 grams | Dams weight gain [5, 7]: 19.4 ± 4.2 grams

CCCC(CCC)C(=O)O [VPA, valproic acid]
Exposed fetuses with exencephaly [6]: 52% | Resorption rate [6]: 53%
